AC50 data for 37 molecules are collected here from PubChem BioAssay AID743267 (Broad Institute, 2014).

This test has as its system human bronchial epithelial cells, CFTR corrector, plate reader. In words: rescue of ΔF508 CFTR function, airway epithelium – human bronchial epithelial cells, plate reader, cherry-pick, two tests, dose response (AID 743267).
[1] abbreviates: measured here: test 1 replicate run.
The mark [2] stands for this setting: measured here: test 2 replicate run.

The molecule `COc1cccc(-c2ccc(C3[C@@H]4CN(S(=O)(=O)c5cccc(OC)c5)C[C@H]3N4)cc2)c1` (some centres not stated) had an AC50 under setting [1] of 13.5 µM. Take `CCC1=Nc2cc(C(=O)NCC3CCCO3)ccc2Sc2ccc(Cl)cc21` (configuration not stated): the half-maximal activity concentration (AC50) under setting [2] is 7.26 µM. As to `O=c1c2ccccc2sc2c(CO)ccc(NCCN3CCCCC3)c12`, the AC50 under setting [2] turned out to be 5.18 µM.

Regarding `C[C@H]1CCCCO[C@@H](CN(C)C(=O)C2CCCCC2)[C@@H](C)CN([C@@H](C)CO)C(=O)c2cc(NC(=O)Nc3ccc(C(F)(F)F)cc3)ccc2O1`, under setting [1], the AC50 is 15.8 µM. For the molecule `Cc1ccc(S(=O)(=O)N2CCCCC2CCNC(=O)C(=O)NCc2ccccc2)cc1` (configuration not stated), the AC50 under setting [2] was 3.29 µM. In turn, `COc1ccccc1N1CC(C(=O)Nc2ccc(S(=O)(=O)N3CCCC3)cc2)CC1=O` (configuration not stated) came in with an AC50 under setting [2] of 10.6 µM. The same measure, in the same setting: under `COC(=O)Cn1c(=NC(=O)c2cc(-c3cccs3)nc3ccccc23)sc2cc(S(N)(=O)=O)ccc21` stands > 50 µM.

Regarding `COc1cc(OC)c2c(-c3cccc(-c4sccc4C(C)=O)c3)cc(=O)oc2c1`, the AC50 under setting [2] amounted to 12.2 µM. For the molecule `COc1ccc(NCC(=O)n2c(C)c(C)c3ccccc32)cc1`, the AC50 under setting [2] was determined as 5.59 µM. On the same count and under the same terms, under `CCN1/C(=C/c2ccc3cc(C)cc(C)c3[n+]2CC)Sc2cc(C)ccc21` stands 12.4 µM; under `CCCC(=O)NC1=C(Cl)C(=O)c2ccccc2C1=O`, 11.8 µM; under `Cn1cc(C(=O)N/N=C/c2ccc3c(c2)OCO3)c2ccccc21`, 9.88 µM. Under setting [2], `CO/N=C\CC(=O)Nc1ccc(Cl)cc1Cl` yielded an AC50 of 30.9 µM. Under setting [2], `O=C1/C(=C\c2cc(Cl)c(O)c(Cl)c2)SC(=S)N1Cc1ccccc1` registered an AC50 of 3.15 µM. Take `O=S1(=O)c2ccc(Br)cc2N2CCC[C@H]2CN1Cc1ccccc1`: the AC50 under setting [2] stood at 1.77 µM.

Regarding `c1ccc2c(NCCCN3CCOCC3)c3ccccc3nc2c1`, the concentration at half-maximal activity (AC50) under setting [2] was determined as 3.51 µM. As to `O=C(Nc1ccc(Cl)cn1)c1cccc2ccccc12`, under setting [2], the AC50 was found to be 8.46 µM. In turn, `CC1(C)Cc2c(c(-c3ccco3)nc3sc4c(NCCN5CCOCC5)ncnc4c23)CO1` gave an AC50 under setting [2] of 3.92 µM. The same measure, in the same setting: under `COc1cc(-c2nccc3cc4c(cc23)OCO4)cc(OC)c1OC` stands 6.02 µM. Consider `Cc1ccc(-c2ccc3c(c2)O[C@@H](CN(C)Cc2ccccn2)[C@H](C)CN([C@H](C)CO)S3(=O)=O)cc1`, for which the AC50 under setting [1] amounted to 13.6 µM. Under setting [2], `C=CCn1c(SCC(=O)N(C)C2CCS(=O)(=O)C2)nc2ccccc2c1=O` (configuration not stated) came in with an AC50 of 26.7 µM. In the case of `N#C[C@@H]1[C@H](c2ccc(-c3cccc(F)c3)cc2)[C@H](CO)N1C(=O)NC1CCCC1`, the AC50 under setting [1] is > 50 µM. Regarding `CCN(CC)c1ccc(/C=N/NC(=O)c2cnccn2)c(O)c1`, under setting [2], the AC50 was 2.2 µM. For `COc1cccc(-c2cnc3c(NC(C)=O)cc(-c4cc(F)ccc4OC)cn23)c1`, the half-maximal activity concentration (AC50) under setting [2] worked out at 11.9 µM. Under setting [2], `Nc1nc(Cl)nc2c1ncn2C1CC(O)C(CO)O1` (configuration not stated) had an AC50 of 2.73 µM. `COc1nc(N)nc(NC(=O)c2cccs2)c1N=O` returned an AC50 under setting [2] of 16 µM. Under setting [2], `O=C(N=Nc1c(O)[nH]c2ccc(Br)cc12)c1ccccc1-n1cccc1` returned an AC50 of 2.33 µM. `O=C(c1cccc(S(=O)(=O)N2CCOCC2)c1)N1CCCC(C(F)(F)F)C1` (configuration not stated) displayed a half-maximal activity concentration (AC50) under setting [2] of 39.2 µM. Under setting [2], `Cc1nn2cc(-c3cccc(Cl)c3)cnc2c1Br` yielded an AC50 of 3.81 µM. Turning to `COC(=O)c1cn(NC(=O)c2cc([N+](=O)[O-])ccc2F)c(=O)c2ccccc12`, the AC50 under setting [2] is 1.21 µM. For the molecule `Clc1ccc(SCc2cc(N3CCOCC3)nc(-c3ccccn3)n2)cc1`, under setting [2], the AC50 was 4.5 µM. Turning to `COc1ccc(-c2cnc3c(NC=O)cc(-c4ccccc4)cn23)cc1OC`, under setting [2], the AC50 came out at 0.793 µM.

Turning to `COc1ccc(NC(=O)c2cc(S(=O)(=O)N3CCOCC3)ccc2C)cc1S(=O)(=O)N1CCOCC1`, under setting [2], the AC50 was > 50 µM. On to `COc1cc(NC(=O)COC(=O)c2n[nH]c3ccccc23)c(C)cc1[N+](=O)[O-]`, for which the AC50 under setting [2] turned out to be 36.6 µM. As for `CC(=O)OCCn1c2nc(=O)[nH]c(=O)c-2nc2cc(C)c(C)cc21`, the AC50 under setting [2] is 15.3 µM.

Take `COc1cc2c(c(Br)c1N)-c1cc(Br)c(N)cc1C2=O`: the concentration at half-maximal activity (AC50) under setting [2] is > 50 µM. For `COc1cc(OC)c(-c2c3cc(O)c(=O)cc-3oc3cc(O)c(O)cc23)cc1OC`, under setting [2], the AC50 turned out to be 8.08 µM.

Usually AC50 stands for the concentration giving half of the maximal activity seen.
